# Reference: the supplement of paper PMC11208160
# Assay: recombinant barcode read abundance after kanamycin selection (control-corrected) (log10(CPM+1)); higher = more efficient recombination; sequences stand for … in AGTGCAGAGAAAATCGGCCAGTTTTCTCTGCCTGCAGTCCGCATGCCGT…AGATTTATGCAGCGGACTGCCTTTCTCCCAAAGTGATAAACCGGACAGTATCATGGACCGGTTTTCCCGGTAATCCGTATTTGCAAGGTTGGTTTCACT; site = the 11-nt target
# Description: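 Pooled E. coli target-specificity screen for the IS621 bridge recombinase. Each library plasmid pairs an 11-nt target (CT core) with a bridge RNA whose target-binding loop (9-nt LTG + 4-nt RTG) is reprogrammed; the rest of the 177-nt WT IS621 bridge RNA scaffold is fixed. The plasmid is co-electroporated with a WT donor plasmid; recombinase is induced with 0.1 mM IPTG and recombinants are selected on kanamycin. Recombinant barcodes are sequenced, converted to CPM, averaged over two biological replicates and corrected by the unselected control CPM. Molecule = full bridge RNA written as DNA: LTG = specificity nt 1-9, RTG = reverse complement of specificity nt 8-11, in the WT scaffold.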
# 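Also: IS621 recombinase and bridge RNA in Escherichia coli cells.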
row,Sequence,recombinant barcode read abundance (log10)
1,AAGATAGCTTGGGTTCTAACCTGTTGCCT (site AAGAGAGCTAG),0.164
2,AAGATAGCTTGGGTTCTAACCTGTTGCCT (site AAGATAGCTAG),1.59
3,AAGCCCACTTGGGTTCTAACCTGTTGCGG (site AAGCCCACTCC),2.28
4,AAGCCCACTTGGGTTCTAACCTGTTGCGG (site CGCGTTGCTAG),0.561
5,AAGCCGCCTTGGGTTCTAACCTGTTGCTT (site AAGCCGCCTAA),0.906
6,AAGCCGCCTTGGGTTCTAACCTGTTGCTT (site TCAATAGCTGT),0.35
7,AAGCTCCCTTGGGTTCTAACCTGTTGCCT (site AAGCTCCCTAG),1.6
8,AAGCTCCCTTGGGTTCTAACCTGTTGCCT (site ACACTCCCTAG),0.242
9,AAGGCCGCTTGGGTTCTAACCTGTTGCCT (site AAGGACGCTAG),1.37
10,AAGGCCGCTTGGGTTCTAACCTGTTGCCT (site AAGGCCGCTAG),1.79
11,AAGGCCGCTTGGGTTCTAACCTGTTGCCT (site AAGGGCGCTAG),0.161
12,AAGGCCGCTTGGGTTCTAACCTGTTGCCT (site AAGGTCGCTAG),0.259
13,AAGGCGCCTTGGGTTCTAACCTGTTGCCT (site AAGGCGCCTAG),0.806
14,AAGGCGCCTTGGGTTCTAACCTGTTGCCT (site ACGGCGCCTAG),0.11
15,AAGGCGCCTTGGGTTCTAACCTGTTGCCT (site AGGGCGCCTAG),0.128
16,AAGGCGCCTTGGGTTCTAACCTGTTGCCT (site ATGGCGCCTAG),0.135
17,AAGGGCTCTTGGGTTCTAACCTGTTGCTT (site AAGGGCTCTAA),2.72
18,AAGGGCTCTTGGGTTCTAACCTGTTGCTT (site GTCTCTCCTCT),0.129
19,AAGGTCCCTTGGGTTCTAACCTGTTGCGG (site AAGGTCCCTCC),3.32
20,AAGGTCCCTTGGGTTCTAACCTGTTGCGG (site TAGGTCCCTTC),0.0703
21,AAGGTGTCTTGGGTTCTAACCTGTTGCCT (site AAAGTGTCTAG),1.97

row,Sequence,recombinant barcode read abundance (log10)
1,AAGGTGTCTTGGGTTCTAACCTGTTGCCT (site AACGTGTCTAG),0.736
2,AAGGTGTCTTGGGTTCTAACCTGTTGCCT (site AAGGTGTCTAG),3.29
3,AAGGTGTCTTGGGTTCTAACCTGTTGCCT (site AATGTGTCTAG),0.45
4,AAGTCCACTTGGGTTCTAACCTGTTGCTT (site AAGTCCACTAA),0.856
5,AAGTCCACTTGGGTTCTAACCTGTTGCTT (site TAGTCCACTTA),0.093
6,AAGTGGTCTTGGGTTCTAACCTGTTGCTA (site AAGTGGTCTTA),1.46
7,AAGTGGTCTTGGGTTCTAACCTGTTGCTA (site TGAGTCCCTCT),0
8,AAGTTGTCTTGGGTTCTAACCTGTTGCGT (site AAGTTGTCTAC),2.77
9,AAGTTGTCTTGGGTTCTAACCTGTTGCGT (site CAGTTGTCTAG),0.0897
10,AATACCACTTGGGTTCTAACCTGTTGCCT (site AATACCACTAG),0.576
11,AATACCACTTGGGTTCTAACCTGTTGCCT (site AATCGCACTAG),0.186
12,AATAGGACTTGGGTTCTAACCTGTTGCGC (site AATAGGACTGC),1.76
13,AATAGGACTTGGGTTCTAACCTGTTGCGC (site ATTAGGACTTC),0.0105
14,AATATAGCTTGGGTTCTAACCTGTTGCTA (site AATATAGCTTA),0.0685
15,AATATAGCTTGGGTTCTAACCTGTTGCTA (site TTCCCCACTAG),0
16,AATCGAGCTTGGGTTCTAACCTGTTGCGG (site AATCGAGCTCC),1.82
17,AATCGAGCTTGGGTTCTAACCTGTTGCGG (site TCCGCTTCTAA),0.0864
18,AATCTCCCTTGGGTTCTAACCTGTTGCCT (site AATATGCCTAG),0.298
19,AATCTCCCTTGGGTTCTAACCTGTTGCCT (site AATCTCCCTAG),1.07
20,AATGAATCTTGGGTTCTAACCTGTTGCCT (site AATGAATCTAG),0.312
